Laboratory results from ChEMBL document CHEMBL5346971, “Discovery of the First Irreversible HDAC6 Isoform Selective Inhibitor with Potent Anti-Multiple Myeloma Activity” (J Med Chem, 2023).
Activity calls are given as the source filed them. No cut-off for these calls is given here.

Legend:
RPMI-8226 = assay: Antiproliferative activity against human RPMI-8226 cells assessed as inhibition of cell proliferation incubated for 48 hrs by CCK8 assay; assay type: functional, cell-based; conditions: RPMI-8226, 48 h
U-266 = assay: Antiproliferative activity against human U-266 cells assessed as inhibition of cell proliferation incubated for 48 hrs by CCK8 assay; assay type: functional, cell-based; conditions: U-266, 48 h
MM1.S = assay: Antiproliferative activity against human MM1.S cells assessed as inhibition of cell proliferation incubated for 48 hrs by CCK8 assay; assay type: functional, cell-based
[1] = Cytotoxicity against human L02 cells assessed as inhibition of cell proliferation incubated for 48 hrs by CCK8 assay; assay type: toxicity, cell-based
Histone deacetylase 2 = Histone deacetylase 2 (Homo sapiens, UniProt Q92769); assay: Inhibition of C-terminal FLAG-tagged human full length recombinant HDAC2 (1 to 488 residues) expressed in Sf9 cells using Boc-Lys(acetyI)-AMC as substrate preincubated with enzyme for 1 hr followed by substrate addition and measured after 30 mins by fluorescence based analysis
[2] = target: T1, Protein deacetylase HDAC6 (Homo sapiens, UniProt Q9UBN7); assay: Inhibition of N-terminal GST-tagged human full length recombinant HDAC6 (1 to 1215 residues) expressed in Sf9 cells using Boc-Lys(acetyI)-AMC as substrate preincubated with enzyme for 1 hr followed by substrate addition and measured after 30 mins by fluorescence based analysis
T1 sequence (Q9UBN7 whole entry): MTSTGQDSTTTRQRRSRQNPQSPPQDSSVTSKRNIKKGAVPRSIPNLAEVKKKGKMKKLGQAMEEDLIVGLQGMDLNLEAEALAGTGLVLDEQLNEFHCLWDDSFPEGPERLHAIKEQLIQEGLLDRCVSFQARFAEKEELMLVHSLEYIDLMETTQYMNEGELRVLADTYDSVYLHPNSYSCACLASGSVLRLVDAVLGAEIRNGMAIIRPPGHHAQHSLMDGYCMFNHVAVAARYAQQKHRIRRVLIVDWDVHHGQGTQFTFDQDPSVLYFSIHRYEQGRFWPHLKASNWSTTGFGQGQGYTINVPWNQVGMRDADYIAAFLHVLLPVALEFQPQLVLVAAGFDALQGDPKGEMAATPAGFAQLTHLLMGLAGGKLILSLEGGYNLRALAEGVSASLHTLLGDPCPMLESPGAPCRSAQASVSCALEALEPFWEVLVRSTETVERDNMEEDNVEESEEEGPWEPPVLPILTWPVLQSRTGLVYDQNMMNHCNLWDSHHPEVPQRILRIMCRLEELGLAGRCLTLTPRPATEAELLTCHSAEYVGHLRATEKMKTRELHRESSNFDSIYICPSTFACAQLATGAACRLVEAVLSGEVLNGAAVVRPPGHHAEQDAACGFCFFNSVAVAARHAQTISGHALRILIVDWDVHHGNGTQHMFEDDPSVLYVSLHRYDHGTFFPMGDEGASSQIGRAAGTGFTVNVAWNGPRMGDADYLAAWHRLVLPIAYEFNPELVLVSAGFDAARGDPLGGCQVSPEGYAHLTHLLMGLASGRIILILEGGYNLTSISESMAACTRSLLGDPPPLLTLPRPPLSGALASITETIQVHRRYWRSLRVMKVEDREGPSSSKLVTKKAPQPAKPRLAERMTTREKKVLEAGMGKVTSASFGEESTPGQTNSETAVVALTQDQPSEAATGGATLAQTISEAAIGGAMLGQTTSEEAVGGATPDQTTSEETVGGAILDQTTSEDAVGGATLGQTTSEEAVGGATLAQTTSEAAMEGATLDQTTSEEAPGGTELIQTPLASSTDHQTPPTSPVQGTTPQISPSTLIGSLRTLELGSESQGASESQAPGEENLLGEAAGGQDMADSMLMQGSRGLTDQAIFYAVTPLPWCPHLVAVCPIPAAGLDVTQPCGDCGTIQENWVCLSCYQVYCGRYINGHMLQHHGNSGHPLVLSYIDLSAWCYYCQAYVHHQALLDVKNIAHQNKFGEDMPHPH

Homo sapiens = species on record: Homo sapiens; assay: Selectivity index, ratio of IC50 for inhibition of C-terminal FLAG-tagged human full length recombinant HDAC2 (1 to 488 residues) expressed in Sf9 cells to IC50 for inhibition of N-terminal GST-tagged human full length recombinant HDAC6 (1 to 1215 residues) expressed in Sf9 cells
[3] = target: T2, Class 1 histone deacetylase (Homo sapiens) (UniProt Q13547+O15379+Q92769+Q9BY41); assay: Inhibition of class 1 HDAC in human A549 cells assessed as acetyl histone H4 level at 2 uM incubated for 5 hrs by western blot analysis relative to control; assay type: cell-based
[4] = target: T3, Protein deacetylase HDAC6 (Homo sapiens) (UniProt Q9UBN7); assay: Inhibition of HDAC6 in human A549 cells assessed as acetyl alpha-tubulin level at 2 uM incubated for 5 hrs by western blot analysis relative to control; assay type: cell-based
T3 sequence (whole entry): T1 sequence (Q9UBN7 whole entry)

[5] = target: T3, Protein deacetylase HDAC6 (Homo sapiens); conditions: A549, dose 80.0 nM, time 5.0 hrs
[6] = target: T3, Protein deacetylase HDAC6 (Homo sapiens); assay: Inhibition of HDAC6 in human A549 cells assessed as acetyl alpha-tubulin level at 10 uM incubated for 5 hrs by western blot analysis relative to control; assay type: cell-based
[7] = target: T2, Class 1 histone deacetylase (Homo sapiens); assay: Inhibition of class 1 HDAC in human A549 cells assessed as acetyl histone H4 level at 10 uM incubated for 5 hrs by western blot analysis relative to control; assay type: cell-based
[8] = target: T3, Protein deacetylase HDAC6 (Homo sapiens); assay: Irreversible inhibition of HDAC6 in human A549 cells assessed as acetyl alpha-tubulin level at 2 uM incubated for 5 hrs followed by drug wash-out and measured immediately after drug wash-out by western blot analysis relative to control; assay type: cell-based
[9] = target: T2, Class 1 histone deacetylase (Homo sapiens); assay: Irreversible inhibition of class 1 HDAC in human A549 cells assessed as acetyl histone H4 level at 2 uM incubated for 5 hrs followed by drug wash-out and measured immediately after drug wash-out by western blot analysis; assay type: cell-based
[10] = target: T2, Class 1 histone deacetylase (Homo sapiens); assay: Irreversible inhibition of class 1 HDAC in human A549 cells assessed as acetyl histone H4 level at 2 uM incubated for 5 hrs followed by drug wash-out for 1 hr by western blot analysis; assay type: cell-based
[11] = target: T3, Protein deacetylase HDAC6 (Homo sapiens); assay: Irreversible inhibition of HDAC6 in human A549 cells assessed as acetyl alpha-tubulin level at 2 uM incubated for 5 hrs followed by drug wash-out for 24 hrs by western blot analysis relative to control; assay type: cell-based
[12] = target: T2, Class 1 histone deacetylase (Homo sapiens); assay: Irreversible inhibition of class 1 HDAC in human A549 cells assessed as acetyl histone H4 level at 2 uM incubated for 5 hrs followed by drug wash-out for 24 hrs by western blot analysis; assay type: cell-based
[13] = target: T3, Protein deacetylase HDAC6 (Homo sapiens); assay: Irreversible inhibition of HDAC6 in human A549 cells assessed as acetyl alpha-tubulin level at 2 uM incubated for 5 hrs followed by drug wash-out for 1 hr by western blot analysis relative to control; assay type: cell-based
[14] = target: T2, Class 1 histone deacetylase (Homo sapiens); assay: Irreversible inhibition of class 1 HDAC in human A549 cells assessed as acetyl histone H3 level at 2 uM incubated for 5 hrs followed by drug wash-out for 24 hrs by western blot analysis; assay type: cell-based
[15] = target: T2, Class 1 histone deacetylase (Homo sapiens); assay: Irreversible inhibition of class 1 HDAC in human A549 cells assessed as acetyl histone H3 level at 2 uM incubated for 5 hrs followed by drug wash-out for 1 hr by western blot analysis; assay type: cell-based
[16] = target: T2, Class 1 histone deacetylase (Homo sapiens); assay: Irreversible inhibition of class 1 HDAC in human A549 cells assessed as acetyl histone H4 level at 2 uM incubated for 5 hrs followed by drug wash-out for 6 hrs by western blot analysis; assay type: cell-based
[17] = Effect on HDAC6 protein expression in human A549 cells assessed as change in HDAC6 protein expression at 2 uM incubated for 5 hrs followed by drug wash-out for 6 hrs by western blot analysis relative to control; assay type: functional
[18] = target: T3, Protein deacetylase HDAC6 (Homo sapiens); assay: Irreversible inhibition of HDAC6 in human A549 cells assessed as acetyl alpha-tubulin level at 2 uM incubated for 5 hrs followed by drug wash-out for 6 hrs by western blot analysis relative to control; assay type: cell-based
[19] = Effect on HDAC6 protein expression in human A549 cells assessed as change in HDAC6 protein expression at 2 uM incubated for 5 hrs followed by drug wash-out for 24 hrs by western blot analysis relative to control; assay type: functional
[20] = Effect on HDAC6 protein expression in human A549 cells assessed as change in HDAC6 protein expression at 2 uM incubated for 5 hrs followed by drug wash-out for 1 hr by western blot analysis relative to control; assay type: functional
[21] = target: T2, Class 1 histone deacetylase (Homo sapiens); assay: Irreversible inhibition of class 1 HDAC in human A549 cells assessed as acetyl histone H3 level at 2 uM incubated for 5 hrs followed by drug wash-out and measured immediately after drug wash-out by western blot analysis; assay type: cell-based
[22] = target: T2, Class 1 histone deacetylase (Homo sapiens); assay: Irreversible inhibition of class 1 HDAC in human A549 cells assessed as acetyl histone H3 level at 2 uM incubated for 5 hrs followed by drug wash-out for 6 hrs by western blot analysis; assay type: cell-based
[23] = Effect on HDAC6 protein expression in human A549 cells assessed as change in HDAC6 protein expression at 2 uM incubated for 5 hrs followed by drug wash-out and measured following drug wash-out by western blot analysis relative to control; assay type: functional

Sequence of Histone deacetylase 2 (Q92769 whole entry, the tested form may be a part): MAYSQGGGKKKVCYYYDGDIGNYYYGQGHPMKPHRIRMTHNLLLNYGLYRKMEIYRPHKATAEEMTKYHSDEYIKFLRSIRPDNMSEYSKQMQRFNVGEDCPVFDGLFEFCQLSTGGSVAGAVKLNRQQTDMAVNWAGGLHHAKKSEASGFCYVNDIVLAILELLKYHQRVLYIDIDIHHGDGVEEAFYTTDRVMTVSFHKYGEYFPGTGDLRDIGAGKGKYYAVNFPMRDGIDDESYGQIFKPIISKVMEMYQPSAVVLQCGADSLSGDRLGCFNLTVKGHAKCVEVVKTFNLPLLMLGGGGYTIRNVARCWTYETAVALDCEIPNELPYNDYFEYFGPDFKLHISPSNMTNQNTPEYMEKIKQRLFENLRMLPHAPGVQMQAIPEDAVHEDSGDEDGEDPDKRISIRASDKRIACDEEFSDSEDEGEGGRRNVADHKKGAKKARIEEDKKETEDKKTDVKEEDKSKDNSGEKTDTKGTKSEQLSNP
T2 sequence (O15379 whole entry, looked up): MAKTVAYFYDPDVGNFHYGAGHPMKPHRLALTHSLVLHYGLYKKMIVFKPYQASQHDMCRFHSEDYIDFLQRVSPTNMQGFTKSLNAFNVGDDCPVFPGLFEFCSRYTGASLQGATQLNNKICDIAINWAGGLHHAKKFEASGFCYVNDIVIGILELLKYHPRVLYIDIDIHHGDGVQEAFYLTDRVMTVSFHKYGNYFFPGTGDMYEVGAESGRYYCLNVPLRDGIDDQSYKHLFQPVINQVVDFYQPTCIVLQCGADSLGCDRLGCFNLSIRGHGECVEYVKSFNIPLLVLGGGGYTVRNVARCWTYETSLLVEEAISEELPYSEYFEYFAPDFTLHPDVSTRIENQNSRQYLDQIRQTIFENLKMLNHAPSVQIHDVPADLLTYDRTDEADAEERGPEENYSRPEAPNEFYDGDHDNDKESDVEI
T2 sequence (Q13547 whole entry, looked up): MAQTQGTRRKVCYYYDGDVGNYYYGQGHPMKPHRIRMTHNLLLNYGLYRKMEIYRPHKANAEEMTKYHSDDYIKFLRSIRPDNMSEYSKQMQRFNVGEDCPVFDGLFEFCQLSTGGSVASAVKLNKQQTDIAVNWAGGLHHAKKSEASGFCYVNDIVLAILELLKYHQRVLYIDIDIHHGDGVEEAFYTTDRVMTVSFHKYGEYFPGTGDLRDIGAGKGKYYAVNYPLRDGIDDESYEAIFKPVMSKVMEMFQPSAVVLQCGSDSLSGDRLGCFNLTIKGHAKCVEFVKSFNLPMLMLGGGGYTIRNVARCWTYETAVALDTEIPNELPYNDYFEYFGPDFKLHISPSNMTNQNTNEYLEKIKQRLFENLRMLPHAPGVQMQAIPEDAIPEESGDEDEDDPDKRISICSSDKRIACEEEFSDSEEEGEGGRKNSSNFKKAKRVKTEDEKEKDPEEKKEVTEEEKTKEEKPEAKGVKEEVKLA
T2 sequence (Q92769 whole entry, looked up): as the sequence (Q92769 whole entry, the tested form may be a part) above
T2 sequence (Q9BY41 whole entry, looked up): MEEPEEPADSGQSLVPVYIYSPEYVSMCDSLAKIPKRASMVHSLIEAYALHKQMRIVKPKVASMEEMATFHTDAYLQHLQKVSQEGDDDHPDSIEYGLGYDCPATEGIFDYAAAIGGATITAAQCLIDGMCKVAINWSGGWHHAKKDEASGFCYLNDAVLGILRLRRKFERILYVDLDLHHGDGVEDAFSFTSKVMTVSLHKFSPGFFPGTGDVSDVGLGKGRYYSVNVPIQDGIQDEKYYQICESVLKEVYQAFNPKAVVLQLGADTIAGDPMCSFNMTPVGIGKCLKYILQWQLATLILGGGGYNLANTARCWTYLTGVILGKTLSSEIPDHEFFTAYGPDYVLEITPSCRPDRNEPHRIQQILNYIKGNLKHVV

| Structure (SMILES) | IC50 (RPMI-8226) [nM] | IC50 (MM1.S) [nM] | IC50 (Histone deacetylase 2) [nM] | IC50 [2] [nM] | fold change (FC) [3] | fold change (FC) [4] | IC50 (U-266) [nM] | IC50 at 48 h [1] [nM] | Ratio IC50 (Homo sapiens) | other results |
| --- | --- | --- | --- | --- | --- | --- | --- | --- | --- | --- |
| O=C(NO)c1cccc(Oc2no[n+]([O-])c2S(=O)(=O)c2ccccc2)c1 |  |  | 8100 | 39200 | 0.2 | 1.1 |  |  | 0.2 |  |
| CN1CCc2c(c3ccccc3n2Cc2ccc(C(=O)NO)cc2)C1 |  |  |  |  |  |  |  |  |  | inhibition [5]: Active |
| COc1cc(C(=O)NO)ccc1Oc1no[n+]([O-])c1S(=O)(=O)c1ccccc1 |  |  | 5300 | 2700 | 0.4 | 1.3 |  |  | 2 |  |
| O=C(CCCCCOc1no[n+]([O-])c1S(=O)(=O)c1ccccc1)NO | 480 | 430 |  | 47 | 2.1 | 3.8 | 690 | 8700 |  | fold change (FC) [8]: 2; fold change (FC) [9]: 4.4; fold change (FC) [10]: 4.7; fold change (FC) [11]: 2.5; fold change (FC) [12]: 1.8; fold change (FC) [13]: 2.2 |
| O=C(NO)c1ccc(Oc2no[n+]([O-])c2S(=O)(=O)c2ccccc2)cc1 | 1200 | 1100 | 3400 | 160 | 0.5 | 2.1 | 1300 | 14300 | 21.3 | fold change (FC) [14]: 0.7; fold change (FC) [8]: 3.9; fold change (FC) [15]: 1.2; fold change (FC) [16]: 0.9; fold change (FC) [17]: 1.1; fold change (FC) [18]: 3.7; fold change (FC) [9]: 1; fold change (FC) [19]: 1.2; fold change (FC) [20]: 1.1; fold change (FC) [21]: 1.1; fold change (FC) [22]: 0.9; fold change (FC) [10]: 1.6; fold change (FC) [23]: 0.9; fold change (FC) [11]: 2.2; fold change (FC) [12]: 0.6; fold change (FC) [13]: 4.4 |
| O=C(/C=C/c1ccc(Oc2no[n+]([O-])c2S(=O)(=O)c2ccccc2)cc1)NO |  |  | 1000 | 310 | 1.7 | 2.7 |  |  | 3.2 |  |

Further lines, with some results ahead:

| IC50 (RPMI-8226) [nM] | IC50 (MM1.S) [nM] | IC50 (Histone deacetylase 2) [nM] | IC50 [2] [nM] | fold change (FC) [3] | fold change (FC) [4] | Structure (SMILES) | IC50 (U-266) [nM] | IC50 at 48 h [1] [nM] | Ratio IC50 (Homo sapiens) | other results |
| --- | --- | --- | --- | --- | --- | --- | --- | --- | --- | --- |
| 6100 | 6400 |  |  |  |  | O=C(NO)c1ccc(COc2nonc2S(=O)(=O)c2ccccc2)cc1 | > 10000 | > 30000 |  |  |
|  |  | 6600 | 10400 | 0.5 | 0.8 | O=C(/C=C/COc1no[n+]([O-])c1S(=O)(=O)c1ccccc1)NO |  |  | 0.6 |  |
|  |  |  |  | 1.3 | 1.3 | O=S(=O)(c1ccccc1)c1c(OCCCCCCO)no[n+]1[O-] |  |  |  | fold change (FC) [6]: 1.2; fold change (FC) [7]: 0.8 |
| 1100 | 910 |  |  |  |  | O=S(=O)(c1ccccc1)c1c(OCc2ccc(CO)cc2)no[n+]1[O-] | 1500 | 8400 |  |  |
